In patent publication US20050197338A1, “Substituted pyrazole urea compounds for the treatment of inflammation” (priority 2003, published 2005) one finds IC50 data, which are given here for 33 molecules.

Counter-ions that a name gives are not always drawn. Where only a bound is given, the exact number is not on record here.

The target in the experiment is T1, human IKK-2 (rhIKK-2 homodimer) (Homo sapiens, UniProt O14920).
T1 construct: FLAG (DYKDDDDKD) (C); made in house; host or cells: insect cells (baculovirus, pFastBac)
T1 sequence (O14920 1-756): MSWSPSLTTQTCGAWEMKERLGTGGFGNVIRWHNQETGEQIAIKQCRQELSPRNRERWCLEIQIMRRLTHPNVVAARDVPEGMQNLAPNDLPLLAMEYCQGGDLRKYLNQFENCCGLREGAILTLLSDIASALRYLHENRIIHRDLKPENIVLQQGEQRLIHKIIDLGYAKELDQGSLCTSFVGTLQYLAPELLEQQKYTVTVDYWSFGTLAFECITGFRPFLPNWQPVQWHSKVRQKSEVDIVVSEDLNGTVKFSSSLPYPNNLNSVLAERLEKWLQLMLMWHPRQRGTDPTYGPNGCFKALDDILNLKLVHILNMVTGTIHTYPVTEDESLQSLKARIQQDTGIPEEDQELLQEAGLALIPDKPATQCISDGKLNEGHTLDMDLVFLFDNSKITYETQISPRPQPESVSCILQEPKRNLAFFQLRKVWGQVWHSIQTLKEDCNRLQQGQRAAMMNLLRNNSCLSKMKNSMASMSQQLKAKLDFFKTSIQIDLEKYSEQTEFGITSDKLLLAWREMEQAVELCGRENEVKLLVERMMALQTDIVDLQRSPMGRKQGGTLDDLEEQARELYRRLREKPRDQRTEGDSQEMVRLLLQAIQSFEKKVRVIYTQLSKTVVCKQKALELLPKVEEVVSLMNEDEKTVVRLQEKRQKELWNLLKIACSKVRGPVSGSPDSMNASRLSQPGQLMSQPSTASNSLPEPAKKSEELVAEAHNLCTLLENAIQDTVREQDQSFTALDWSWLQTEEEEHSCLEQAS
As to the kind of experiment: IKK-2 Resin Enzyme Assay (Human IKK-2 Enzyme Assay). It counts as biochemical. Particulars: human IKK-2, resin enzyme assay; read-out: IC50 (μM) hIKK-2. The essentials: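 C-terminally FLAG-tagged human IKK-2 homodimer, baculovirus-expressed in insect cells and anti-FLAG purified. Reaction mix: 5 μM biotinylated IκBα peptide (Ser32/Ser36 region), 1 μM ATP with [γ-33P]ATP, 2 mM MgCl2, 2 mM MnCl2, 10 mM NaF, 1 mM DTT, 25 mM HEPES pH 7.6. Incubated 30 min at 25 °C; IC50 derived.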

By IC50 is commonly meant the midpoint of a concentration-inhibition curve. With `NC(=O)COc1ccc(F)cc1-c1ccc(-n2cc(NC(N)=O)c(C(N)=O)n2)cc1` [Example 252, 4-[(aminocarbonyl)amino]-1-[2′-(2-amino-2-oxoethoxy)-5′-fluoro-1,1′-biphenyl-4-yl]-1H-pyrazole-3-carboxamide], the IC50 came out at 0.492 µM.

Take `NC(=O)Nc1cn(-c2ccc(-c3cccc(OCc4ccncc4)c3)cc2)nc1C(N)=O` [Example 171, 4-[(aminocarbonyl)amino]-1-[3′-(pyridin-4-ylmethoxy)-1,1′-biphenyl-4-yl]-1H-pyrazole-3-carboxamide]: the 50% inhibitory concentration (IC50) was 6.84 µM.

As for `CN(C)C(=O)COc1cccc(-c2ccc(-n3cc(NC(N)=O)c(C(N)=O)n3)cc2)c1` [Example 181, 4-[(aminocarbonyl)amino]-1-{3′-[2-(dimethylamino)-2-oxoethoxy]-1,1′-biphenyl-4-yl}-1H-pyrazole-3-carboxamide], the IC50 was 0.105 µM.

In the case of `COc1cc(-c2cccc(-n3cc(NC(N)=O)c(C(N)=O)n3)c2)c(Cl)cn1` [Example 14, trifluoroacetate], the concentration for half-maximal inhibition (IC50) came to 8.95 µM.

For the molecule `CCOc1cccc(-c2cccc(-n3cc(NC(N)=O)c(C(N)=O)n3)c2)c1` [Example 354, 4-[(aminocarbonyl)amino]-1-(3′-ethoxy-1,1′-biphenyl-3-yl)-1H-pyrazole-3-carboxamide], the IC50 is greater than 20 µM.

Consider `CNC(=O)CCc1cccc(-c2ccc(-n3cc(NC(N)=O)c(C(N)=O)n3)cc2)c1` [Example 381, 4-[(aminocarbonyl)amino]-1-{3′-[3-(methylamino)-3-oxopropyl]-1,1′-biphenyl-4-yl}-1H-pyrazole-3-carboxamide], for which the IC50 is 0.42 µM.

Turning to `NC(=O)Nc1cn(-c2cccc(-c3ccc4[nH]ccc4c3)c2)nc1C(N)=O` [Example 65, 4-[(aminocarbonyl)amino]-1-[3-(1H-indol-5-yl)phenyl]-1H-pyrazole-3-carboxamide], the IC50 was 1.8 µM.

Consider `CC(C)c1ccc(-n2cc(NC(N)=O)c(C(N)=O)n2)cc1` [Example 216, 4-[(aminocarbonyl)amino]-1-(4-isopropylphenyl)-1H-pyrazole-3-carboxamide], for which the IC50 is 0.159 µM.

As for `CCc1cc(Br)ccc1N/N=C(\C#N)C(N)=O` [Example 277, (2E)-2-[(4-bromo-2-ethylphenyl)hydrazono]-2-cyanoacetamide], the IC50 was 7.59 µM.

In the case of `CC(C)NC(=O)c1cccc(-c2ccc(-n3cc(NC(N)=O)c(C(N)=O)n3)cc2)c1` [Example 148, 4-[(aminocarbonyl)amino]-1-{3′-[(isopropylamino)carbonyl]-1,1′-biphenyl-4-yl}-1H-pyrazole-3-carboxamide], the IC50 amounted to 7.14 µM.

Take `NC(=O)Nc1cn(-c2ccc(-c3ccc(F)cc3)cc2)nc1C(N)=O` [Example 25, 4-[(aminocarbonyl)amino]-1-(4′-fluoro-1,1′-biphenyl-4-yl)-1H-pyrazole-3-carboxamide]: the IC50 worked out at 1.55 µM.

As to `NC(=O)Nc1cn(-c2cccc(-c3ccc(F)c(Cl)c3)c2)nc1C(N)=O` [Example 361, 4-[(aminocarbonyl)amino]-1-(3′-chloro-4′-fluoro-1,1′-biphenyl-3-yl)-1H-pyrazole-3-carboxamide], the IC50 is greater than 20 µM.

Consider `NC(=O)Nc1cn(-c2cccc(-c3ccc(C(=O)NC4CC4)cc3)c2)nc1C(N)=O` [Example 80, 4-[(aminocarbonyl)amino]-1-{4′-[(cyclopropylamino)carbonyl]-1,1′-biphenyl-3-yl}-1H-pyrazole-3-carboxamide], for which the IC50 amounted to 0.6 µM.

In the case of `NC(=O)Nc1cn(-c2ccc(-c3ccc(O)cc3)cc2)nc1C(N)=O` [Example 36, 4-[(aminocarbonyl)amino]-1-(4′-hydroxy-1,1′-biphenyl-4-yl)-1H-pyrazole-3-carboxamide], the IC50 amounted to 1.63 µM.

As to `Cc1cc(-n2cc(NC(N)=O)c(C(N)=O)n2)ccc1S(=O)(=O)c1ccc(F)cc1` [Example 298, 1-[4-(4-fluoro-benzenesulfonyl)-3-methyl-phenyl]-4-ureido-1H-pyrazole-3-carboxylic acid amide], the IC50 is 0.724 µM.

Consider `CNC(=O)COc1cccc(-c2ccc(-n3cc(NC(N)=O)c(C(N)=O)n3)cc2)c1` [Example 383, 4-[(aminocarbonyl)amino]-1-{3′-[2-(methylamino)-2-oxoethoxy]-1,1′-biphenyl-4-yl}-1H-pyrazole-3-carboxamide], for which the IC50 came out at 0.07 µM.

For the molecule `NC(=O)Nc1cn(-c2ccc(-c3cccc(O)c3)cc2)nc1C(N)=O` [Example 22, 4-[(aminocarbonyl)amino]-1-(3′-hydroxy-1,1′-biphenyl-4-yl)-1H-pyrazole-3-carboxamide], the IC50 turned out to be 1.2 µM.

Turning to `NC(=O)Nc1cn(-c2ccc(-c3ccccc3F)cc2)nc1C(N)=O` [Example 30, 4-[(aminocarbonyl)amino]-1-(2′-fluoro-1,1′-biphenyl-4-yl)-1H-pyrazole-3-carboxamide], the IC50 is 3 µM.

On to `NC(=O)Nc1cn(-c2cccc(-c3cccc4ccccc34)c2)nc1C(N)=O` [Example 360, 4-[(aminocarbonyl)amino]-1-[3-(1-naphthyl)phenyl]-1H-pyrazole-3-carboxamide], for which the IC50 was greater than 20 µM.

On to `COc1cccc(-c2ccc(-n3cc(NC(N)=O)c(C(N)=O)n3)cc2)c1` [Example 107, 4-[(aminocarbonyl)amino]-1-(3′-methoxy-1,1′-biphenyl-4-yl)-1H-pyrazole-3-carboxamide], for which the IC50 stood at 0.651 µM.

On to `CC(C)(C)c1ccc(-c2ccc(-n3cc(C(N)=O)c(NC(N)=O)n3)cc2)cc1` [Example 126], for which the IC50 was greater than 20 µM.

In the case of `Cc1cc(O)ccc1-c1cccc(-n2cc(NC(N)=O)c(C(N)=O)n2)c1` [Example 89, 4-[(aminocarbonyl)amino]-1-(4′-hydroxy-2′-methyl-1,1′-biphenyl-3-yl)-1H-pyrazole-3-carboxamide], the IC50 was 0.7 µM.

On to `NC(=O)Nc1cn(-c2cccc(-c3cccc(-c4ccccc4)c3)c2)nc1C(N)=O` [Example 372], for which the IC50 was greater than 20 µM.

As to `CC(=O)c1cccc(-c2cccc(-n3cc(NC(N)=O)c(C(N)=O)n3)c2)c1` [Example 351, 1-(3′-acetyl-1,1′-biphenyl-3-yl)-4-[(aminocarbonyl)amino]-1H-pyrazole-3-carboxamide], the IC50 was greater than 20 µM.

As for `NC(=O)Nc1cn(-c2ccc(F)c(F)c2)nc1C(N)=O` [Example 218, 4-[(aminocarbonyl)amino]-1-(3,4-difluorophenyl)-1H-pyrazole-3-carboxamide], the IC50 stood at 1.31 µM.

Regarding `CC1(C)OB(c2ccc(-n3cc(NC(N)=O)c(C(N)=O)n3)cc2)OC1(C)C` [Example 260, 4-[(aminocarbonyl)amino]-1-[4-(4,4,5,5-tetramethyl-1,3,2-dioxaborolan-2-yl)phenyl]-1H-pyrazole-3-carboxamide], the IC50 is 0.512 µM.

As for `NC(=O)Nc1cn(-c2ccc(-c3cccc(O)c3)c(C(F)(F)F)c2)nc1C(N)=O` [Example 233, 4-[(aminocarbonyl)amino]-1-[3′-hydroxy-2-(trifluoromethyl)-1,1′-biphenyl-4-yl]-1H-pyrazole-3-carboxamide], the IC50 was 0.375 µM.

For `Cc1cnccc1-c1cccc(-n2cc(NC(N)=O)c(C(N)=O)n2)c1` [Example 69, 4-[(aminocarbonyl)amino]-1-[3-(3-methylpyridin-4-yl)phenyl]-1H-pyrazole-3-carboxamide], the IC50 came out at 0.65 µM.

`NC(=O)Nc1cn(-c2ccc(I)cc2Cl)nc1C(N)=O` [Example 251, 4-[(aminocarbonyl)amino]-1-(2-chloro-4-iodophenyl)-1H-pyrazole-3-carboxamide]: the IC50 is 0.662 µM.

Consider `NC(=O)Nc1cn(-c2ccc(-c3ccc[nH]3)cc2)nc1C(N)=O` [Example 26, 4-[(aminocarbonyl)amino]-1-[4-(1H-pyrrol-2-yl)phenyl]-1H-pyrazole-3-carboxamide], for which the IC50 came to 0.59 µM.

With `NC(=O)Nc1cn(-c2cccc(-c3ccc(C(=O)NCC(=O)O)cc3)c2)nc1C(N)=O` [Example 85, N-[(3′-{3-(aminocarbonyl)-4-[(aminocarbonyl)amino]-1H-pyrazol-1-yl}-1,1′-biphenyl-4-yl)carbonyl]glycine], the concentration for half-maximal inhibition (IC50) worked out at 0.58 µM.

For `NC(=O)Nc1cn(-c2ccc(C(=O)N3CCCCC3)cc2)nc1C(N)=O` [Example 303, 4-[(aminocarbonyl)amino]-1-[4-(piperidin-1-ylcarbonyl)phenyl]-1H-pyrazole-3-carboxamide], the IC50 was determined as 1.4 µM.

In the case of `NC(=O)Nc1cn(-c2ccc(-c3ccc(F)cc3O)c(F)c2)nc1C(N)=O` [Example 262, 4-[(aminocarbonyl)amino]-1-(2,4′-difluoro-2′-hydroxy-1,1′-biphenyl-4-yl)-1H-pyrazole-3-carboxamide], the IC50 was 0.842 µM.
